Key:
Type in all cases: functional, cell-based
[1] = Cytotoxicity against human multidrug-resistant KB/VJ300 cells in presence of 0.12 uM vincristine
[2] = tested on: KB; test: Cytotoxicity against human KB cells
[3] = Cytotoxicity against human KB/VJ300 cells

Compound | IC50 [1] [nM] | IC50 [2] [nM] | IC50 [3] [nM]
COC(=O)C1=C[C@@]23CCCN4CC[C@@]5(c6ccccc6N[C@]15CC2)[C@@H]43 [KOPSIJASMININE] | 38700 |  | 
CC[C@]1(O)C[C@H]2CN(CCc3c([nH]c4ccccc34)[C@@](C(=O)OC)(c3cc4c(cc3OC)N(C=O)[C@H]3[C@@](O)(C(=O)OC)[C@H](OC(C)=O)[C@]5(CC)C=CCN6CC[C@]43[C@@H]65)C2)C1 [VINCRISTINE] |  | 16.7 | 1340
